Like-named read-outs stand apart in the source and are kept apart here.
Tests used:
[1] = test system: liver constructs (bioprinted liver organoids); test: On-chip liver construct urea secretion (colorimetric assay); type: cell-based, human
Description: (§1) Liver construct synthetic functionality, response to acetaminophen insult, and intervention with N-acetyl-L-cysteine. To assess the response of the liver organoid system to toxic drug insult, acetaminophen was employed. Liver organoids were cultured in microreactors as described before for 14 days. Media samples were collected on days 3, 6, 10, and 14. After media collection on day 6, 1 set of organoids continued with normal media, 1 set of organoids were treated with 1 mM APAP, and 1 set of organoids were treated with 10 mM APAP. To assess the effectiveness of a countermeasure treatment to be used in the liver organoid system, N-acetyl-L-cysteine was explored as a clinically relevant treatment against APAP-induced toxicity. This final set of organoids was treated with 10 mM APAP and 20 mM N-acetyl-L-cysteine. During media changes, groups receiving the drug treatment received fresh HCM also containing the appropriate drug concentration.
(§2) For assessment of liver organoid albumin and urea secretion under baseline conditions as well as during exposure to APAP, collected media aliquots were analyzed using a Human Albumin ELISA assay (Alpha Diagnostic International) and the amount of secreted urea in the collected media was determined using a Urea colorimetric assay (BioAssay Systems). For viability assessment, organoids were removed immediately after the final media collection time point (day 14) for staining by LIVE/DEAD viability/cytotoxicity kits (Life Technologies). Staining consisted of incubation in 2 uM calcein AM (stains live cells green) and 4 uM EthD-1 (stains dead cells red) in a 1:1 PBS:HCM solution. […] Additionally, media samples were analyzed for presence of lactate dehydrogenase (LDH), an enzyme that is released from cells after toxicity causes cell membrane rupture, using a Lactate Dehydrogenase Assay Kit (Abcam), and for α-GST, a hepatocyte-specific enzyme also released from cells after exposure to toxicity, using an α-GST Assay Kit (Oxford Biomedical Research).

[2] = test system: liver constructs (bioprinted liver organoids); test: On-chip liver construct albumin secretion (Human Albumin ELISA); type: cell-based; details: for albumin levels vs 0 mM control: administered after day 6
Description: as §1
For assessment of liver organoid albumin and urea secretion under baseline conditions as well as during exposure to APAP, collected media aliquots were analyzed using a Human Albumin ELISA assay (Alpha Diagnostic International) and the amount of secreted urea in the collected media was determined using a Urea colorimetric assay (BioAssay Systems). For viability assessment, organoids were removed immediately after the final media collection time point (day 14) for staining by LIVE/DEAD viability/cytotoxicity kits (Life Technologies). Staining consisted of incubation in 2 uM calcein AM (stains live cells green) and 4 uM EthD-1 (stains dead cells red) in a 1:1 PBS:HCM solution. Following staining, organoids were washed in PBS, fixed in 4% PFA, transferred to PBS, and imaged using macro-confocal microscopy (Leica TCS LSI). Additionally, media samples were analyzed for presence of lactate dehydrogenase (LDH), an enzyme that is released from cells after toxicity causes cell membrane rupture, using a Lactate Dehydrogenase Assay Kit (Abcam), and for α-GST, a hepatocyte-specific enzyme also released from cells after exposure to toxicity, using an α-GST Assay Kit (Oxford Biomedical Research).

[3] = test system: liver constructs (bioprinted liver organoids); test: On-chip liver construct viability by LIVE/DEAD staining after APAP / NAC; type: cell-based; details: day 14
Description: as §1, §2

[4] = test system: liver constructs (bioprinted liver organoids); test: On-chip liver construct lactate dehydrogenase release into media; type: cell-based, human; details: for LDH concentration in the media: day 10
cardiac organoids [5] = test: Cardiac organoid beating rate response to drugs (onboard camera / microscope); type: cell-based, human
Excerpt: Cardiac construct baseline function monitoring and beat rate response to drugs. […] First the cover of the webcam is disassembled to retrieve the CMOS sensor. The lens of the webcam is then detached from its initial location, flipped, and integrated back to the holder to convert it into a magnifying lens. A base was then constructed for the mini-microscope to fit onto the bottom of the bioreactors. The base consisted of a dual-layer structure of PMMA sheets (⅛″ Thick, 12″×12″, McMaster 8505K11) cut into the dimensions of the bioreactors using a laser cutter (VLS 2.30 Desktop Laser System, Universal Laser Systems). Using 4 sets of screw/bolts, the CMOS module was tightly clamped in between a pair of PMMA structures. Additional 4 sets of screw/bolts were further mounted at the corners of the structures to function as the focus knobs. Only very minor alteration to the bioreactor itself was needed, i.e., 4 extra holes were drilled on the lower PMMA board to fit the imager at the bottom. During culture of cardiac constructs, videos were captured to analyze cardiac organoid beating rates. Video files were analyzed using custom written MatLab code with a series of MatLab functions. The software created a reference frame, based on the first frame of the video, and compared pixels in each subsequent frame, determining which pixels represented movement over time. The moving pixels in each frame were then used to generate a black and white pixilated representation of beat behavior, allowing visualization of beat propagation, and generation a plot showing the number of moving pixels versus time, allowing determination of beating rates.

[6] = test system: liver constructs (bioprinted liver organoids); test: On-chip liver construct alpha-GST release into media; type: cell-based, human; details: 10 mM APAP + 20 mM NAC
Description: Liver construct synthetic functionality, response to acetaminophen insult, and intervention with N-acetyl-L-cysteine. To assess the response of the liver organoid system to toxic drug insult, acetaminophen was employed. Liver organoids were cultured in microreactors as described before for 14 days. Media samples were collected on days 3, 6, 10, and 14. After media collection on day 6, 1 set of organoids continued with normal media, 1 set of organoids were treated with 1 mM APAP, and 1 set of organoids were treated with 10 mM APAP. […]
as §2, with “Systems).” for “Systems). For viability assessment, organoids were removed immediately after the final media collection time point (day 14) for staining by LIVE/DEAD viability/cytotoxicity kits (Life Technologies). Staining consisted of incubation in 2 uM calcein AM (stains live cells green) and 4 uM EthD-1 (stains dead cells red) in a 1:1 PBS:HCM solution.”

[7] = test system: bioprinted cardiac tissue constructs (rat neonatal cardiomyocytes); test: Bioprinted rat cardiac tissue constructs, response to cardiac drugs; type: cell-based
Excerpt: In this study, 3D bioprinting was applied to fabricate functional and contractile cardiac tissue constructs. Rat neonatal heart tissues were obtained to isolate cardiomyocytes, and the cells were suspended in a fibrin-based hydrogel bioink. Cell-laden hydrogel was printed through a 300-micron nozzle by pneumatic pressure. […] Moreover, tissue development of the printed cardiac tissue could accelerate by Notch signal blockade.

cardiac organoids [8] = details: for increase in beating rate: 0.5 μM
Description: Integrated organoid system and integrated response to drugs. To evaluate how the combination of both organoid types together impact drug response, epinephrine and propranolol were tested independently and jointly. In the independent scenario, organoid platforms were prepared in two groups: Group 1 consisted of a set of organoids comprised only of cardiac, with “blank” liver modules. Group 2 consisted of both cardiac and liver. However, it should be noted that cardiac and liver constructs were kept separate for the incubation period, while the drug was administered to the liver construct or “blank” liver module, after which the modules were joined for 30 minutes prior to cardiac beating rate assessment. Baseline cardiac organoid beating rates were determined in each group prior to drug administration. Then, the drugs—either 0.1 μM propranolol or 0.5 μM epinephrine—were administered, allowed to incubate for 1 hour, after which the modules were joined, and data was collected.

cardiac organoids [9] = test system: cardiac organoids
Description: To test the integrated response of the liver and cardiac system to epinephrine and propranolol combinations, the experimental groups described above were prepared and the same protocol (individual unit incubation prior to joining of modules) was followed. However, the incubation period was lengthened to overnight (18 hours). Both Group 1 and Group 2 were administered 0.1 uM propranolol. After the incubation period, the modules were joined and 0.5 uM epinephrine was be administered to both groups. Additionally, in parallel, a Group 3 condition was employed, which mirrored Group 2, but used a 2D hepatocyte culture (1-2 million cells/well) instead of the liver construct as a 2D comparison.

liver organoids [10] = test: Troglitazone toxicity, organoid viability by CellTiter-Glo ATP assay; type: cell-based, human; details: liver organoids treated for 48 hours
Description: Organoid viability assays. Organoid viability was assessed by ATP production as a measure of metabolic activity as detailed in the following white paper^1. CellTiter-Glo assay (Promega) was used to measure ATP by transferring one organoid/well to a black, opaque 96-well plate (Corning). Blanks were included using HCM medium (Lonza) at 80 μl/well. 80 μl of prepared CellTiter-Glo buffer was added per well and plate was placed on shaker for 5 minutes to lyse cells, then further incubated for 15 minutes protected from light. Plate was read using plate reader (SpectraMax M5, Molecular Devices) with an integration time of 0.5 see/well. Sample time points were compared via two-sample unequal variance t-test. Live/dead stain was also used to assess viability. Organoids were washed in PBS and then stained with live/dead viability/cytotoxicity kit (Life Technologies): 2 μL/mL ethidium homodimer-1 and 0.5 μL/mL calcein AM (diluted in PBS) for 45 minutes at room temperature, protected from light. Organoids were transferred to a depression glass slide (Erie Scientific) and then imaged using TCS LSI macro confocal microscope with 5× macro objective (Leica).
Troglitazone toxicity. […] Organoid viability was measured using the CellTiter-Glo assay (Promega) as recorded as previously described.

liver organoids [11] = test: Phospholipid accumulation, HCS LipidTox Phospholipidosis Detection Stain; type: cell-based, human; details: 48 hour treatment, even with lower concentrations
Description: Accumulation of phospholipids within the organoids was imaged using the HCS LipidTox Phospholipidosis Detection Stain (Invitrogen). LipidTox reagent was added to medium at the same time as the troglitazone at a ratio of 1:500. Following 48 hour drug treatment, organoids were fixed in 4% paraformaldehyde (Sigma Aldrich), washed in PBS, and then transferred to a depression glass slide (Erie Scientific) for imaging using TCS LSI macro confocal with 5× macro objective (Leica).

For CC(=O)Nc1ccc(O)cc1 [APAP, acetaminophen], the urea levels ([1]; 1 mM and 10 mM APAP, after administration) was “drop in a dose dependent manner”, the “albumin levels vs 0 mM control” value ([2]; 1 mM APAP) was “significantly decreased” and the “albumin levels vs 0 mM control” value ([2]; 10 mM APAP) was “significantly decreased”. For the same compound, the albumin levels ([2]; 10 mM APAP, day 14) was “nearly immeasurable”, the “viability (ratio of live to dead cells, LIVE/DEAD)” value ([3]; 1 mM APAP) was 30-50% and the “viability (LIVE/DEAD)” value ([3]; 10 mM APAP) was “few viable cells”. For the same compound, the “LDH concentration in the media” value ([4]; 10 mM APAP) was “clear increase in LDH concentration” and the LDH levels ([4]; 10 mM APAP, day 14) was “drop down to baseline”.
In the case of CC(C)NCC(O)c1ccc(O)c(O)c1 (stereo not drawn) [Isoproterenol], the organoid beating rate (cardiac organoids [5]; 0.1 mM) is reported as “increased organoid beating rate”.
In the case of CC(=O)N[C@@H](CS)C(=O)O [NAC, N-acetyl-L-cysteine], the “urea levels vs 10 mM APAP” value ([1]; 10 mM APAP + 20 mM NAC) is reported as “significantly greater than the 10 mM APAP urea levels”, the “urea levels vs control organoids” value ([1]; 10 mM APAP + 20 mM NAC) is reported as “not significantly different than the control organoids” and the alpha-GST in media ([6]; day 10) is reported as “about 6 ng/mL”. The alpha-GST in media ([6]; day 14) was ~5 ng/mL, the “albumin levels vs 10 mM APAP group” value ([2]; 10 mM APAP + 20 mM NAC) was “significantly greater than those of the 10 mM APAP treated group” and the “viability (LIVE/DEAD), rescue from APAP” value ([3]; 10 mM APAP + 20 mM NAC) was “reduced the level of morbidity”. The “LDH concentration in the media” value ([4]; 10 mM APAP + 20 mM NAC) was “almost identical to the control group”.
For C[N+](C)(C)CCOC(N)=O [carbachol], the “physiological responses (beating frequency and contraction forces)” value [7] was “showed physiological responses”.
With CNC[C@H](O)c1ccc(O)c(O)c1 [epinephrine] the “concentration at which beating rate plateau is reached” value (cardiac organoids [5]) was ≥ 5 µM, the “organoid beating rate, dose response” value (cardiac organoids [5]; 0, 0.1, 0.5, 5 and 50 uM) was “increased in a dose-dependent manner” and the “increase in beating rate” value (cardiac organoids [8]; cardiac-only system) was “approximately 40%”. For the same compound, the “increase in beating rate” value (cardiac organoids [8]; with liver component) was ~30%, the “physiological responses (beating frequency and contraction forces)” value [7] was “showed physiological responses” and the “restoration of the epinephrine-induced increase in beat rate” value (cardiac organoids [9]; 0.5 μM epinephrine after 0.1 μM propranolol, 2D hepatocyte culture instead of liver construct) was “failed achieve any restoration”. The “increase in BPM” value (cardiac organoids [9]; 0.5 μM epinephrine after 0.1 μM propranolol, Group 2, liver component added) was 1.25 fold, the “response relative to control epinephrine-only response” value (cardiac organoids [9]; 0.5 μM epinephrine after 0.1 μM propranolol, Group 2 with 3D liver organoids) was “approximately 50%” and the “increase in cardiac BPM” value (cardiac organoids [9]; 0.5 μM epinephrine, controls with no propranolol) was 1.5 fold.
With CC(C)NCC(O)COc1cccc2ccccc12 (stereo not drawn) [propranolol] the “prevention of epinephrine-induced increase in beating rate” value (cardiac organoids [5]; 0, 0.5, 5, 20 uM propranolol for 20 minutes, then 5 uM epinephrine) was “more effectively prevented epinephrine-induced increases in beating rates”, the “decrease in beating rate” value (cardiac organoids [8]; 0.1 μM, cardiac-only system) was ~10% and the “change in beating rate” value (cardiac organoids [8]; 0.1 μM, in the presence of the liver construct) was “no decrease in beating rate”. For the same compound, the “block of beta-adrenergic effects of 0.5 μM epinephrine” value (cardiac organoids [9]; 0.1 μM propranolol, Group 1, no liver organoids) was “successfully blocked”.
For C=C[C@H]1C[N@@]2CC[C@H]1C[C@@H]2[C@@H](O)c1ccnc2ccc(OC)cc12 [quinidine], the organoid beating rate (cardiac organoids [5]; 1 μM) was “slowed organoid beating rate”.
With Cc1c(C)c2c(c(C)c1O)CCC(C)(COc1ccc(CC3SC(=O)NC3=O)cc1)O2 (stereo not drawn) [troglitazone] the “viability (ATP quantification), dose-response” value (liver organoids [10]) was “decrease in viability as concentration of drug is increased” and the phospholipid accumulation (liver organoids [11]) was “Considerable phospholipid accumulation”.
